Reference: patent US7795215B2, “MNTF peptides and compositions and methods of use” (Genervon Biopharmaceuticals LLC, priority 2003, dated 2010)
“Also recorded” adds a separate entry of the source. Where no end group is shown, it is not given here.

Key:
[1] = system: VSC4.1 cells, a motor neuron/neuroblastoma cell hybrid; experiment: VSC4.1 cell proliferation assay (BrdU); format: cell-based; conditions: for Biological Function / OD (optimal dose): VSC4.1 proliferation; for maximal increase in cell proliferation: % increase over control; for stimulation of VSC4.1 cell proliferation over controls: second round of experiments
Method: Studies of proliferation were performed in 96 well plates utilizing a cell proliferation assay kit from Roche Diagnostics GmbH (Mannheim, Germany). VSC4.1 cells, a motor neuron/neuroblastoma cell hybrid, were cultured in DMEM with 2% FBS containing either no MNTF or a dose range of MNTF from 10^−8 to 10^−5 g/ml. Each treatment was applied in triplicate wells. The cells were cultured for 21 hours and 5-bromo-2′-deoxyuridine (BrdU) from the assay kit was added to each well. After BrdU labeling for 3 hours, the cells were washed, fixed and dried. The cells were then fixed and the DNA denatured to improve access for the subsequent antibody binding. POD-labeled mouse monoclonal anti-BrdU antibody from the assay kit was applied for 2 hours, followed by a wash. The assay was quantitated by adding the colorimetric assay solution (tetramethyl benzidine) and reading at 450 nm on a Wallac Vector 2 plate reader. Cells in the treatment groups were quantitated by comparing to wells plated with a gradient of cells from 0 to 20,000 cells/well on the same plate. Data is expressed as % of control to allow for variability from plate to plate.
Additional cell proliferation assays, conducted essentially as described above, were performed to compare the effects of several GLP grade MNTF peptides.
Further cell proliferation studies were performed, essentially as described above, to test the response of the motor neuron/neuroblastoma cells to three new preparations of MNTF. The MNTF preparations utilized for these assays were: […]

rat femoral nerve = experiment: Femoral nerve model, MNTF pump experiments (Preferential Motor Reinnervation); format: in vivo
Method: The specificity of motor axon regeneration was investigated in the rat femoral nerve. Proximally, at the site of nerve transection and suture, axons that contribute to both cutaneous and muscle branches intermingle throughout the nerve. As these axons regenerate, they have equal access to neighboring motor and sensory Schwann cell tubes in the distal nerve stump. This assures an element of “choice” at the axonal level. Distally, where the specificity of regeneration is assessed, axons are segregated into terminal cutaneous and muscle branches. Motor axons are normally found only in the muscle branch, so any motor reinnervation of the cutaneous branch represents a pathfinding failure. The specificity of axon regeneration is evaluated by simultaneous application of horseradish peroxidase (HRP) to one distal femoral branch and fluoro-gold (FG) to the other. Motor-axon regeneration is random at 3 weeks, but the number of correct projections to muscle increases dramatically at later times. Many neurons initially contain both tracers, and thus project collaterals to both cutaneous and muscle branches. The number of these double-labeled neurons decreases with time. Motor axon collaterals are thus pruned from the cutaneous branch, increasing the number of correct projections to muscle at the expense of double-labeled neurons. A specific interaction thus occurs between regenerating motor axons and muscle and/or muscle nerve that we have termed Preferential Motor Reinnervation (PMR).
In preliminary experiments we attempted to modify motor axon regeneration in the femoral nerve by pumping MNTF 33mer at 10^−4 M onto the repair site, using an Alzet osmotic pump which discharges for at least 2 weeks. The output of the pump was sewn to muscle adjacent to the nerve repair, so that the nerve wound would be continuously bathed with the factor. Reinnervation of the distal femoral cutaneous and muscle branches was quantified with tracers as described above.
In a follow-up experiment MNTF 33mer was administered to eight transected and sutured rat femoral nerves at 10^−4 M, essentially as described above. Controls were a group of six nerves that underwent routine suture with pumps delivering saline but no MNTF. A mean of 100 motoneurons projected correctly in the six controls, whereas a mean of 87 motoneurons projected incorrectly to skin.
To determine if a truncated MNTF peptide could be substituted for MNTF 33mer, subsequent experiments were performed, essentially as described above, using the MNTF 6mer FSRYAR, at 10^−4 M (n=8), 10^−5 M (n=8) and 10^−6 M (n=8), with a total of 22 saline controls for comparison. […] Thus the 6mer is capable of promoting selective reinnervation of target muscles in a manner similar to the MNTF1 33mer.

[2] = earliest studies, FIG. 2, listed as GLP grade MNTF 33mer
[3] = earliest studies, FIG. 2, listed as MNTF 33mer (research grade)
[4] = second set, FIG. 3, highest dose
[5] = follow-up experiment, 10^−4 M, eight nerves, saline pump controls
[6] = preliminary experiments, 10^−4 M by Alzet osmotic pump, three weeks, three animals

Substance | Biological Function ([1]; assay set Aug. 4, 2003) | OD (optimal dose) ([1]; assay set Aug. 4, 2003) [µg/mL] | Biological Function ([1]; assay set Mar. 28, 2003) | Biological Function ([1]; assay set Oct. 27, 2002) | effect on proliferation of motor neuron/neuroblastoma cells (summary in description) ([1]; in vitro) | relative effectiveness in proliferation assay (words) ([1]; third set, FIG. 4) | OD (optimal dose) ([1]; assay set Mar. 28, 2003) [µg/mL] | relative effectiveness in proliferation assay (words) ([1]; second set, FIG. 3) | dose of maximal response ([1]; earliest studies, FIG. 2) [µg/mL] | relative effectiveness in proliferation assay (words) ([1]; earliest studies, FIG. 2) | maximal increase in cell proliferation ([1]; earliest studies, FIG. 2) [%] | further results
33mer: 33 amino acid MNTF1-F6 fragment, SEQ ID NO:1, made by solid phase synthesis; positive control in cell proliferation assays (LGTFWGDTLNCWMLSAFSRYARCLAEGHDGPTQ) [reference compound] | Effective | 0.01 | Effective | Effective | effective at increasing the proliferation of motoneuron/neuroblastoma cells | significantly (p<0.05) stimulated proliferation over control; also recorded: nearly as well as the 10mer at low doses; also recorded: clearly superior to the 21mer | – | – | – | – | – | OD (optimal dose) ([1]; assay set Mar. 28, 2003, listed as 33mer GLPg, L): 10 µg/mL; OD (optimal dose) ([1]; assay set Mar. 28, 2003, listed as 33mer Rg, L): 100 µg/mL; OD (optimal dose) ([1]; assay set Oct. 27, 2002, listed as 33mer GLPg, L): 0.1 µg/mL; OD (optimal dose) ([1]; assay set Oct. 27, 2002, listed as 33mer Rg, L): 10 µg/mL; maximal increase in cell proliferation [1, 2]: 34.3%; maximal increase in cell proliferation [1, 3]: 31.7%; relative effectiveness in proliferation assay (words) ([1]; earliest studies, FIG. 2, listed as GLP grade 33mer): most biologically active; dose of maximal response [1, 2]: 0.1 µg/mL; relative effectiveness in proliferation assay (words) [1, 2]: most effective in this assay; dose of maximal response [1, 3]: 10 µg/mL; peak fold response in proliferation ([1]; second set, FIG. 3, at 10 μg/ml): 3 fold; fold increase in proliferation [1, 4]: ~3 fold; correct projections of motoneurons to muscle (mean) (rat femoral nerve; [5]): 173; incorrect projections of motoneurons to skin (mean) (rat femoral nerve; [5]): 59; correct projections of motoneurons to muscle (mean) (rat femoral nerve; [6]): 210; incorrect projections of motoneurons to skin (mean) (rat femoral nerve; [6]): 31
CWMLSAFSRYARC [13mer] | – | – | Effective | – | sufficient to increase cell proliferation of motor neuron/neuroblastoma cells | – | 0.1 | some efficacy at the lowest dose, this effect fell off at higher doses | – | – | – | stimulation of VSC4.1 cell proliferation over controls [1]: ≥ 250%
Cyclized MNTF 33mer: cyclized version of the MNTF1 33-mer, SEQ ID NO:1, research grade (LGTFWGDTLNCWMLSAFSRYARCLAEGHDGPTQ; also: cyclized) | – | – | – | Limited Efficacy. | less effective | – | – | – | 0.1 | limited efficacy | 12.9 | relative effectiveness in proliferation assay (words) ([1]; earliest studies, FIG. 2, listed as cyclized MNTF 33mer): very weak proliferative activity at low doses
FSRYARCLAEG [11mer] | – | – | Effective | Effective | sufficient to increase cell proliferation of motor neuron/neuroblastoma cells | – | 1 | poorest performers; also recorded: less effectively than the others | 10 | comparably effective | 32.2 | OD (optimal dose) ([1]; assay set Oct. 27, 2002): 10 µg/mL; fold increase in proliferation ([1]; second set, FIG. 3, at 1 μg/ml): ~2.5 fold
MLSAFSRYAR [10mer] | Effective | 0.01 | – | – | at least as effective the full-length MNTF 33mer | significantly (p<0.05) stimulated proliferation over control; also recorded: most active proliferative agent; also recorded: clearly superior to the 21mer | – | – | – | – | – | lowest concentration at which at least as effective as MNTF 33mer ([1]; in vitro): 0.01 µg/mL; increase in proliferation over controls ([1]; third set, FIG. 4, three lowest doses used): ~200%
MLSAFSRYARCLAEGHDGPTQ [21mer] | Effective | 0.1 | – | – | sufficient to increase cell proliferation of motor neuron/neuroblastoma cells | significantly (p<0.05) stimulated proliferation over control; also recorded: about half that of the other two MNTF isoforms | – | – | – | – | – | –
WMLSAFS [7mer] | – | – | Effective | Effective | potent stimulator of motor neuron/neuroblastoma cells in vitro over a broad range of dosage levels | – | 100 | most potent preparation across the whole dose range; also recorded: most active proliferative agent | 1 | markedly less effective | 25.1 | OD (optimal dose) ([1]; assay set Oct. 27, 2002): 1 µg/mL; relative effectiveness in proliferation assay (words) ([1]; earliest studies, FIG. 2, listed as MNTF 7mer): broader active dose range than the other preparations; stimulation of VSC4.1 cell proliferation over controls [1]: 350%; fold increase in proliferation [1, 4]: ~3.5 fold; fold increase in proliferation ([1]; second set, FIG. 3, lowest dose applied): 2.5 fold
cyclized MNTF 13mer: cyclized version of the 13-mer CWMLSAFSRYARC, SEQ ID NO:6, research grade (also: cyclized) | – | – | – | Limited Efficacy. | not as effective at stimulating cell proliferation in vitro | – | – | – | 1 | least effective of all peptides tested | 17.3 | effect on proliferation at higher doses ([1]; earliest studies, FIG. 2, higher doses): appeared to inhibit proliferation; relative effectiveness in proliferation assay (words) ([1]; earliest studies, FIG. 2, listed as cyclized 13mer): markedly less effective
